From ChEMBL document CHEMBL5500324, “The potential of marine-derived piperazine alkaloids: Sources, structures and bioactivities” (Eur J Med Chem, 2024)
Converted amounts (≈) assume the structure as drawn.

How the values were obtained:
PC-3 = assay: Cytotoxicity against human PC-3 cells assessed as reduction in cell growth incubated for 48 hrs by CCK-8 assay; type: functional, cell-based; settings: PC-3, 48 h
U-937 [1] = assay: Cytotoxicity against human U-937 cells assessed as reduction in cell growth incubated for 48 hrs by CCK-8 assay; type: functional, cell-based; settings: U-937, 48 h
L1210 = assay: Cytotoxicity against mouse L1210 assessed as cell growth inhibition; type: functional, cell-based
HeLa [2] = assay: Cytotoxicity against human HeLa cells assessed as cell growth inhibition; type: functional, cell-based
Bel-7402 = assay: Cytotoxicity against human Bel-7402 cells assessed as reduction in cell growth incubated for 72 hrs measured by MTT assay; type: functional, cell-based; settings: Bel-7402, 72 h
HepG2 [3] = assay: Antiproliferative activity against human HepG2 cells assessed as reduction in cell viability by CCK-8 assay; type: functional, cell-based
HCT-116 [4] = assay: Cytotoxicity against human HCT-116 cells assessed as reduction in cell viability incubated for 48 hrs by MTT assay; type: functional, cell-based; settings: HCT-116, 48 h
A549 [5] = assay: Cytotoxicity against human A549 cells assessed as reduction in cell viability incubated for 48 hrs by MTT assay; type: functional, cell-based; settings: A549, 48 h
[6] = Cytotoxicity against human Huh7.5 cells assessed as reduction in cell viability incubated for 72 hrs by CCK-8 assay; type: toxicity, cell-based, Huh-7.5
HeLa [7] = assay: Cytotoxicity against human HeLa cells assessed as reduction in cell viability incubated for 24 hrs by CCK-8 assay; type: functional, cell-based
A549 [8] = assay: Cytotoxicity against human A549 cells assessed as reduction in cell viability incubated for 24 hrs by CCK-8 assay; type: functional, cell-based; settings: A549, 24 h
AGS = assay: Antiproliferative activity against human AGS cells assessed as reduction in cell viability measured for 48 hrs by Cell-Titer Glo assay; type: functional, cell-based
MCF7 [9] = assay: Antiproliferative activity against human MCF7 cells assessed as reduction in cell viability incubated for 72 hrs by MTT assay; type: functional, cell-based; settings: MCF7, 72 h
HCT-116 [10] = assay: Antiproliferative activity against human HCT-116 cells assessed as reduction in cell growth; type: functional, cell-based
A549 [11] = assay: Antiproliferative activity against human A549 cells assessed as reduction in cell viability incubated for 72 hrs by CCK-8 assay; type: functional, cell-based; settings: A549, 72 h
T47D = assay: Antiproliferative activity against human T47D cells incubated for 48 hrs by MTT assay; type: functional, cell-based
U-937 [12] = assay: Cytotoxicity against human U-937 cells assessed as inhibition of cell growth; type: functional, cell-based
HL-60 = assay: Cytotoxicity against human HL-60 cells assessed as reduction in cell growth; type: functional, cell-based
HEK293 = assay: Cytotoxicity against HEK293 cells assessed as cell growth inhibition; type: functional, cell-based; settings: Homo sapiens
RKO = assay: Cytotoxicity against human RKO cells assessed as inhibition of cell growth measured after 48 hrs by MTT assay; type: functional, cell-based
HCT-116 [13] = assay: Cytotoxicity against human HCT-116 cells assessed as reduction in cell viability incubated for 24 hrs by MTT assay; type: functional, cell-based; settings: HCT-116, 24 h
HepG2 [14] = assay: Cytotoxicity against human HepG2 cells assessed as inhibition of cell growth incubated for 72 hrs by SRB assay; type: functional, cell-based; settings: HepG2, 72 h
A549 [15] = assay: Cytotoxicity against human A549 cells assessed as inhibition of cell growth incubated for 72 hrs by SRB assay; type: functional, cell-based; settings: A549, 72 h
MCF7 [16] = assay: Cytotoxicity against human MCF7 cells assessed as inhibition of cell growth incubated for 72 hrs by SRB assay; type: functional, cell-based; settings: MCF7, 72 h
SF-268 = assay: Cytotoxicity against human SF-268 cells assessed as inhibition of cell growth incubated for 72 hrs by SRB assay; type: functional, cell-based; settings: SF-268, 72 h
[17] = Cytotoxicity against human AML1 cells expressing FLT3-ITD mutant assessed as cell viability; type: functional, cell-based

COc1ccc2c3c([nH]c2c1)[C@H](C=C(C)C)N1C(=O)[C@@H]2CCCN2C(=O)[C@]1(O)[C@H]3O
IC50 (PC-3): 6.56 µM
IC50 (U-937 [1]): 1.82 µM

COc1ccc2c3c(n(CC=C(C)C)c2c1)[C@H](C=C(C)C)N1C(=O)[C@@H]2CCCN2C(=O)[C@]1(O)[C@H]3O
IC50 (PC-3): 43.4 µM
IC50 (U-937 [1]): 14.1 µM

CC1(C)C=Cc2c(ccc3c2N(O)C(=O)[C@@]32C[C@@]34NC(=O)[C@]5(CCCN5C3=O)C[C@H]4C2(C)C)O1
IC50 (L1210): 29 µg/mL (≈ 62.6 µM)
IC50 (HeLa [2]): 27 µg/mL (≈ 58.2 µM)

C[C@H]1CCN2C[C@]34CC5(C(=O)Nc6c5ccc5c6OC=CC(C)(C)O5)C(C)(C)[C@@H]3C[C@]12C(=O)N4C (stereo not given in full)
IC50 (Bel-7402): 1.9 µM

CS[C@@]12CC3=CC=C[C@H](OC(C)=O)[C@H]3N1C(=O)[C@]1(SC)CC3=CC=C[C@H](O)[C@H]3N1C2=O
IC50 (HepG2 [3]): 21 µg/mL (≈ 45.6 µM)

C[C@H]1CCN2C[C@]34CC5(C(=O)Nc6c5cc(O)c5c6OC=CC(C)(C)O5)C(C)(C)[C@@H]3C[C@]12C(=O)N4C (stereo not given in full)
IC50 (Bel-7402): 3.3 µM

COc1ccc(C[C@H]2NC(=O)[C@@H](CC(C)C)NC2=O)cc1O
IC50 (HCT-116 [4]): 75.4 µg/mL (≈ 246 µM)
IC50 (A549 [5]): 35.4 µg/mL (≈ 116 µM)

CO[C@@H]1CC(=O)[C@@H]2C[C@@]34SS[C@]5(C[C@H]6C(=O)CC(=O)[C@H](O)[C@H]6N5C3=O)C(=O)N4[C@@H]2[C@H]1O
IC50 at 72 h [6]: 9.52 µM

CC[C@H](C)[C@]1(O)NC(=O)[C@@H](Cc2ccccc2)N2C(=O)C3=C(NC21)OC=CC=C3 (stereo not given in full)
IC50 (HeLa [7]): 114 µM
IC50 (A549 [8]): 61 µM

CS[C@@]12CC3=CC=CC[C@H]3N1C(=O)[C@]1(SC)CC3=CC=C[C@H](OC(C)=O)[C@H]3N1C2=O
IC50 (HepG2 [3]): 48 µg/mL (≈ 108 µM)

CC(=O)O[C@H]1C=COC=C2C[C@@]34SS[C@]5(Cc6ccccc6N5C3=O)C(=O)N4[C@@H]21
IC50 (AGS): 29 µM
IC50 (MCF7 [9]): 31 µM
IC50 (HCT-116 [10]): 52 µM
IC50 (A549 [11]): 23 µM

CC(C)=CCC/C(C)=C/COc1ccc(/C=C2\NC(=O)[C@H](C)N(O)C2=O)cc1
IC50 (T47D): 11.6 µg/mL (≈ 30.2 µM)
IC50 (U-937 [12]): 11.6 µg/mL (≈ 30.2 µM)
IC50 (HL-60): 11.6 µg/mL (≈ 30.2 µM)

CN1C(=O)[C@]2(S)CC3=CC=C[C@H](O)[C@H]3N2C(=O)[C@]1(S)CO
IC50 (HEK293): 1.26 µM
IC50 (RKO): 0.41 µM
IC50 (HCT-116 [13]): 0.43 µM

CN1C(=O)[C@@]23CSC4=C(C(=O)c5ccccc5C4=O)N2C[C@@H]1CO3
IC50 (HepG2 [14]): 12 µM
IC50 (A549 [15]): 13.5 µM
IC50 (MCF7 [16]): 20.7 µM
IC50 (SF-268): 11.9 µM

CC1(C)C=Cc2c(ccc3c2N[C@@]24N5C(=O)[C@@H]6CCCN6C(=O)[C@]5(O)C[C@@]32O[C@H](CO)C4(C)C)O1
IC50 [17]: 7.2 µM

CS[C@@]12CC3=CC=C[C@H](OC(C)=O)[C@H]3N1C(=O)[C@]1(SC)CC3=CC=C[C@H](OC(C)=O)[C@H]3N1C2=O
IC50 (HepG2 [3]): 42 µg/mL (≈ 83.6 µM)

C=CC(C)(C)[C@]1(C[C@H]2NC(=O)[C@H]3CCCN3C2=O)C(=O)Nc2c1ccc1c2C=CC(C)(C)O1
IC50 (L1210): 22 µg/mL (≈ 48.9 µM)
IC50 (HeLa [2]): 50 µg/mL (≈ 111 µM)

CC(C)/C=c1/[nH]c(=O)/c(=C/c2ccccc2)n(C)c1=O
IC50 (HCT-116 [4]): > 100 µg/mL
IC50 (A549 [5]): 89.4 µg/mL (≈ 331 µM)
